Reference: ChEMBL document CHEMBL4229379, “Synthesis and structure-activity relationship of novel bisindole amidines active against MDR Gram-positive and Gram-negative bacteria” (Eur J Med Chem, 2018)
Values after ≈ are worked out from the molar mass of the structure shown.

What was measured:
Type in all cases: functional
Staphylococcus aureus [1] = assay: Antibacterial activity against methicillin-sensitive Staphylococcus aureus ATCC 29213 after 18 hrs by CLSI broth microdilution method; conditions: ATCC 29213, 18 h
Staphylococcus aureus [2] = assay: Antibacterial activity against methicillin-resistant Staphylococcus aureus 12-33 after 18 hrs by CLSI broth microdilution method; conditions: 12-33, 18 h
Escherichia coli = assay: Antibacterial activity against extended-spectrum beta-lactamase harboring Escherichia coli 13-1 after 18 hrs by CLSI broth microdilution method; conditions: 13-1, 18 h
Klebsiella pneumoniae [3] = assay: Antibacterial activity against new delhi metallo-beta-lactamase-1 harboring Klebsiella pneumoniae 13-1 after 18 hrs by CLSI broth microdilution method; conditions: 13-1, 18 h
[4] = tested on: Acinetobacter calcoaceticus; assay: Antibacterial activity against new delhi metallo-beta-lactamase-1 harboring Acinetobacter calcoaceticus 13-1 after 18 hrs by CLSI broth microdilution method; conditions: 13-1, 18 h
[5] = tested on: Acinetobacter calcoaceticus; assay: Antibacterial activity against carbapenem-resistant Acinetobacter calcoaceticus 12-6 after 18 hrs by CLSI broth microdilution method; conditions: 12-6, 18 h
Klebsiella pneumoniae [6] = assay: Antibacterial activity against extended-spectrum beta-lactamase deficient Klebsiella pneumoniae 7 after 18 hrs by CLSI broth microdilution method; conditions: Klebsiella pneumoniae, 7, 18 h
Klebsiella aerogenes = assay: Antibacterial activity against Enterobacter aerogenes ATCC 13048 after 18 hrs by CLSI broth microdilution method; conditions: ATCC 13048, 18 h
Proteus vulgaris = assay: Antibacterial activity against Proteus vulgaris ATCC 29905 after 18 hrs by CLSI broth microdilution method; conditions: ATCC 29905, 18 h
Staphylococcus aureus [7] = assay: Antibacterial activity against methicillin-resistant Staphylococcus aureus ATCC 33591 infected in ICR mouse assessed as mouse survival at 3 mg/kg, iv administered at 1 and 5 hrs post infection and measured on day 7 day post last dose (reference value: 0%); conditions: ATCC 33591, iv
Staphylococcus aureus [8] = assay: Antibacterial activity against methicillin-resistant Staphylococcus aureus ATCC 33591 infected in ICR mouse assessed as mouse survival at 3.5 mg/kg, iv administered at 1 and 5 hrs post infection and measured on day 7 day post last dose (reference value: 0%); conditions: ATCC 33591, iv
Staphylococcus aureus [9] = assay: Antibacterial activity against methicillin-resistant Staphylococcus aureus ATCC 33591 infected in ICR mouse assessed as mouse survival at 4 mg/kg, iv administered at 1 and 5 hrs post infection and measured on day 7 day post last dose (reference value: 0%); conditions: ATCC 33591, iv
Staphylococcus aureus [10] = assay: Antibacterial activity against methicillin-resistant Staphylococcus aureus ATCC 33591 infected in ICR mouse assessed as mouse survival administered intravenously at 1 and 5 hrs post infection and measured on day 7 day post last dose (reference value: 0%); conditions: ATCC 33591, iv

## CN(C)C(=N)c1ccc2cc(-c3ccc(-c4cc5ccc(C(=N)N(C)C)cc5[nH]4)cc3)[nH]c2c1
Staphylococcus aureus [1]
  MIC: 0.25 µg/mL (≈ 0.557 µM)
Staphylococcus aureus [2]
  MIC: 0.25 µg/mL (≈ 0.557 µM)
Escherichia coli
  MIC: 2 µg/mL (≈ 4.46 µM)
Klebsiella pneumoniae [3]
  MIC: 4 µg/mL (≈ 8.92 µM)
[4]
  MIC: 4 µg/mL (≈ 8.92 µM)
[5]
  MIC: 8 µg/mL (≈ 17.8 µM)
Klebsiella pneumoniae [6]
  MIC: 2 µg/mL (≈ 4.46 µM)
Klebsiella aerogenes
  MIC: 2 µg/mL (≈ 4.46 µM)
Proteus vulgaris
  MIC: 4 µg/mL (≈ 8.92 µM)
Staphylococcus aureus [7]
  survival at 3 mg/kg: 60%
Staphylococcus aureus [8]
  survival at 3.5 mg/kg: 80%
Staphylococcus aureus [9]
  survival at 4 mg/kg: 90%
Staphylococcus aureus [10]
  ED50: 2.62 mg/kg
  ED95: 4.62 mg/kg
